The values that follow come from ChEMBL document CHEMBL5034037, “Synthesis, Characterization, and Preclinical Evaluation of a Small-Molecule Prostate-Specific Membrane Antigen-Targeted Monomethyl Auristatin E Conjugate” (J Med Chem, 2021).

One data set relates to PC-3. The data set can be described thus: Induction of intracellular reactive oxygen species production in human PC-3 cells incubated for 1 hr measured at CC50 concentration by amperometric method. It is filed as functional, cell-based.
The nature of data set [1]: Toxicity in rat assessed as morphological changes in adrenal medulla at 150 to 225 microg/kg, iv. As to conditions: in vivo, dose 150-225 µg/kg.
A short description of data set [2]: Toxicity in rabbit assessed as morphological changes in spleen pulp at 81 to 122 microg/kg, iv. It is filed as tissue-based, Oryctolagus cuniculus. As to conditions: in vivo, dose 81-122 µg/kg.
Data set [3] in a line: Stability of the compound in human liver microsome assessed as half life. It is filed as ADME. Conditions: liver microsomes. In general terms: Liver microsomes are vesicles of endoplasmic reticulum, rich in cytochrome P450 enzymes.
A short description of data set [4]: Toxicity in rat assessed as morphological changes in loops of colon at 150 to 225 microg/kg, iv. Type of data set: tissue-based. As to conditions: in vivo, dose 150-225 µg/kg.
Data set [5] in a line: AUC (0 to t) in Wistar rat at 1.5 mg/kg, iv. Type of data set: ADME, organism-based. Also noted: dose 1.5 mg/kg. As to conditions: in vivo.
Data set [6] is described as follows: Toxicity in rabbit assessed as morphological changes in testes at 81 to 122 microg/kg, iv. Also noted: species or system Oryctolagus cuniculus. As to conditions: in vivo, dose 81-122 µg/kg.
Data set [7] is described as follows: Toxicity in rat assessed as morphological changes in tongue at 150 to 225 microg/kg, iv. Conditions: in vivo, dose 150-225 µg/kg. Type of data set: tissue-based.
Data set [8] is described as follows: Toxicity in rabbit assessed as morphological changes in lungs at 81 to 122 microg/kg, iv. Also on record: species or system Oryctolagus cuniculus. Conditions: in vivo, dose 81-122 µg/kg.
The nature of data set [9]: Toxicity in rat assessed as morphological changes in testes at 150 to 225 microg/kg, iv. Conditions: in vivo, dose 150-225 µg/kg.
The nature of data set [10]: Toxicity in rat assessed as morphological changes in lumen of trachea at 150 to 225 microg/kg, iv. Type of data set: tissue-based. Conditions: in vivo, dose 150-225 µg/kg.

In general, half-life refers to how long it takes for the measured level to halve. By AUC(0-t) is commonly meant the area under the concentration-time curve up to a stated or last time point. A high value points to high exposure.

Calls of active or inactive are those of the source. No cut-off for these calls is given here. *1 amine or outer side, *2 acyl side, *3 side chain or, on linkers, in order; H or OH if unused. Where a SMILES comes first, the peptide text is derived from it. [ ]: non-standard residue; d: D form. The star is where a group is joined. GluureaLys(ε-3-ClBenzyl) = O=C(O)CC[C@H](NC(=O)N[C@@H](CCCCN(Cc1cccc(Cl)c1)*)C(=O)O)C(=O)O; Dolaproine = CO[C@@H]([C@@H]1CCCN1)[C@@H](C)C(=O)O; Dil = CC[C@H](C)[C@H](NC)[C@@H](CC(=O)O)OC; X1 = O=C(CCCc1cn(CCCN[*:1])nn1)[*:2]; PABC = O=C(OCc1ccc(N[*:1])cc1)[*:2]; X2 = C[C@@H](N*)[C@@H](O)c1ccccc1; Cit = NC(=O)NCCC[C@H](N)C(=O)O; Suc = O=C(CCC(=O)[*:2])[*:1]; NMeV = CN[C@H](C(=O)O)C(C)C; Ahx = NCCCCCC(=O)O

With `CC[C@H](C)[C@@H]([C@@H](CC(=O)N1CCC[C@H]1[C@H](OC)[C@@H](C)C(=O)N[C@H](C)[C@@H](O)c1ccccc1)OC)N(C)C(=O)[C@@H](NC(=O)[C@H](C(C)C)N(C)C(=O)OCc1ccc(NC(=O)[C@H](CCCNC(N)=O)NC(=O)[C@@H](NC(=O)CCCc2cn(CCCNC(=O)[C@H](Cc3ccc(O)cc3)NC(=O)[C@H](Cc3ccccc3)NC(=O)CCC(=O)NCCCCCC(=O)N(CCCC[C@H](NC(=O)N[C@@H](CCC(=O)O)C(=O)O)C(=O)O)Cc3cccc(Cl)c3)nn2)C(C)C)cc1)C(C)C` ({GluureaLys(ε-3-ClBenzyl)-Ahx-Suc}-FY[X1]V[Cit][PABC][NMeV]V[Dil][Dolaproine]-X2), the result in the data set with PC-3 was Active. Moreover, the Activity result in [1], in data set [2], in data set [4], in data set [6], in data set [7] and in data set [8] was “Non-Toxic” each time. For the same compound, the Activity result in data set [9] and in [10] was “Non-Toxic” each time. The half-life in data set [3] worked out at 34.3 min. This compound also came in with an area under the curve AUC(0-t) in data set [5] of 76 µg·h/mL.
